Results on 14 compounds are retold here after BindingDB's records for doi:10.1016/j.bmcl.2020.126986 (Abbvie, 2020).

A short description of assay [1]: Inhibition of NS5B polymerase in HCV genotype 1a H77 infected in human HuH7 replicon cells assessed as inhibition of viral replication after 3 days by luciferase reporter gene assay. Background: Replicon systems follow genome replication, usually without infectious particles.
The nature of assay [2]: Inhibition of NS5B polymerase in HCV genotype 1b Con1 infected in human HuH7 replicon cells assessed as inhibition of viral replication after 3 days by luciferase reporter gene assay.

Each structure is given as a SMILES string.

As usually defined, the EC50 is the concentration that produces a half-maximal response. With `CCOC(=O)C(C)(C)NP(=O)(OC[C@H]1O[C@@H](n2ccc(=O)[nH]c2=O)[C@](Cl)(Br)[C@@H]1O)Oc1ccccc1` (stereo partly drawn), the EC50 in assay [1] worked out at 960 nM; in assay [2] it was 1170 nM.

For `COCC(C)OC(=O)[C@H](C)NP(=O)(OC[C@H]1O[C@@H](n2ccc(=O)[nH]c2=O)[C@](Cl)(Br)[C@@H]1O)Oc1ccccc1` (stereo partly drawn), the EC50 in assay [1] is 414 nM; in assay [2] it was 387 nM.

With `CC(C)C(=O)OC[C@H](C)NP(=O)(OC[C@H]1O[C@@H](n2ccc(=O)[nH]c2=O)[C@](Cl)(Br)[C@@H]1O)Oc1ccccc1` (stereo partly drawn), the half-maximal effective concentration (EC50) in assay [1] turned out to be 317 nM; in assay [2], 455 nM.

Regarding `CC(C)OC(=O)[C@H](C)N[P@](=O)(OC[C@H]1O[C@@H](n2ccc(=O)[nH]c2=O)[C@](Cl)(Br)[C@@H]1O)Oc1ccccc1`, the EC50 amounted to 114 nM in assay [1] and 147 nM in assay [2].

For `CC(C)OC(=O)[C@H](C)N[P@](=O)(OC[C@H]1O[C@@H](n2ccc(=O)[nH]c2=O)[C@](Cl)(Br)[C@@H]1O)Oc1cccc2ccccc12`, the EC50 in assay [1] was found to be 106 nM; in assay [2], 139 nM.

Turning to `CC(C)OC(=O)[C@H](C)N[P@@](=O)(OC[C@H]1O[C@@H](n2ccc(=O)[nH]c2=O)[C@](Cl)(Br)[C@@H]1O)Oc1ccccc1`, the figures for the half-maximal effective concentration (EC50) in assay [1] and in assay [2] were 415 nM and 515 nM, respectively.

In the case of `COc1cccc(O[P@](=O)(N[C@@H](C)C(=O)OC(C)C)OC[C@H]2O[C@@H](n3ccc(=O)[nH]c3=O)[C@](Cl)(Br)[C@@H]2O)c1`, the EC50 in assay [1] worked out at 98 nM; in assay [2], 127 nM.

In the case of `CCOC(=O)[C@H](C)N[P@](=O)(OC[C@H]1O[C@@H](n2ccc(=O)[nH]c2=O)[C@](Cl)(Br)[C@@H]1O)Oc1ccccc1`, the figures for the EC50 in assay [1] and in assay [2] were 298 nM and 301 nM, respectively.

Turning to `CC(C)OC(=O)[C@H](C)N[P@](=O)(OC[C@H]1O[C@@H](n2ccc(=O)[nH]c2=O)[C@](Cl)(Br)[C@@H]1OC(=O)[C@@H](N)C(C)C)Oc1cccc2ccccc12`, the EC50 was 94 nM in assay [1] and 99 nM in assay [2].

For the compound `COCC(=O)OC[C@H](C)NP(=O)(OC[C@H]1O[C@@H](n2ccc(=O)[nH]c2=O)[C@](Cl)(Br)[C@@H]1O)Oc1ccccc1` (stereo partly drawn), the EC50 in assay [1] was determined as 2500 nM; in assay [2] it was 3040 nM.

For the compound `CC(C)OC(=O)C(C)(C)NP(=O)(OC[C@H]1O[C@@H](n2ccc(=O)[nH]c2=O)[C@](Cl)(Br)[C@@H]1O)Oc1ccccc1` (stereo partly drawn), the EC50 in assay [1] amounted to 1090 nM; in assay [2] it was 1380 nM.

For `CCOC(=O)[C@H](C)N[P@@](=O)(OC[C@H]1O[C@@H](n2ccc(=O)[nH]c2=O)[C@](Cl)(Br)[C@@H]1O)Oc1ccccc1`, the figures for the EC50 in assay [1] and in assay [2] were 1210 nM and 1190 nM, respectively.

Regarding `CC(C)OC(=O)[C@H](C)N[P@](=O)(OC[C@H]1O[C@@H](n2ccc(=O)[nH]c2=O)[C@](Cl)(Br)[C@@H]1OC(=O)[C@@H](N)C(C)C)Oc1ccccc1`, the EC50 came to 156 nM in assay [1] and 167 nM in assay [2].

Regarding `COCC(C)C(=O)OC[C@H](C)NP(=O)(OC[C@H]1O[C@@H](n2ccc(=O)[nH]c2=O)[C@](Cl)(Br)[C@@H]1O)Oc1ccccc1` (stereo partly drawn), the figures for the EC50 in assay [1] and in assay [2] were 592 nM and 522 nM, respectively.
